Measurements: patent US10760110B2, “Antibiotic testing and screening system” (priority 2017, dated 2020)
In brackets after ≈: the same amount, converted by molar mass. Where two headings read alike, the source gives them in different places.

Assays:
[1] = tested on: K. pneumoniae NVT1001 and ΔramR strains with tet resistance gene plasmids; assay: Etest MIC of tetracyclines, AcrAB-TolC overexpression (ΔramR) and/or tet resistance gene (Table 14); format: cell-based, Klebsiella pneumoniae; conditions: Klebsiella pneumoniae
Protocol: DNA fragments of the resistance genes along with their flanking regions were amplified from clinical plasmids via PCR with specific primer pairs. The resulting PCR fragments were digested and then cloned into the plasmid pACYC177 or pACYC184. The resulting plasmids were then transformed into K. pneumoniae strain NVT1001 via electroporation. The recombinant bacteria were plated onto LB agar plates containing kanamycin (50 mg/L) or chloramphenicol (50 mg/L), and the presence of the cloned gene was confirmed via PCR and DNA sequencing.
(§1) The MICs of antibiotics were determined using the Etest (Biodisk AB, Sweden) according to the manufacturer's instructions. The MICs from the Etest, which fall between standard two-fold dilutions, were rounded up to the next highest two-fold value. The MICs of ceftazidime and cefotaxime against K. pneumoniae NVT1001 harbouring the pACYC177 plasmid with blaOXA-48 were further determined using a broth microdilution test according to the recommendations of the CLSI,^25 and the results were interpreted according to the breakpoints established by the CLSI in 2017.^25 Meanwhile, due to the lack of CLSI breakpoints in 2016 and 2017, the results for cephalothin were interpreted according to the breakpoints established by the CLSI in 2015,^26 and the results for moxifloxacin were interpreted according to the breakpoints established by the EUCAST in 2017.^27

[2] = tested on: K. pneumoniae NVT1001 ΔramRΔompK35/36 mutant and its revertants; assay: Etest MIC, ΔramRΔompK35/36 mutant and its revertants (Table 7); format: cell-based; conditions: Klebsiella pneumoniae
Source text: The allelic-exchange method was used to restore the wild-type gene in the K. pneumoniae NVT1001 mutants with constructed chromosome-mediated resistance mechanisms, as described by Tsai et al.^19 Briefly, a DNA fragment of the entire wild-type gene sequence along with flanking regions was amplified from K. pneumoniae NVT1001 using PCR with specific primers. The resulting PCR fragment was digested and then cloned into pUT-KB. For homologous recombination, this plasmid was transformed into E. coli S17-1 λpir^23 via electroporation and mobilized into the K. pneumoniae NVT1001 mutant via conjugation. […] After incubation in 20 mL BHI broth for 6 hours at 37° C. in the absence of kanamycin, the fully grown cultures were spread onto LB agar plates supplemented with 10% sucrose. After the double crossover occurred, the sucrose-resistant and kanamycin-susceptible colonies were selected, and the restoration of the wild-type gene was confirmed via DNA sequencing.
as §1

[3] = tested on: A. baumannii KW1 strains with tet resistance gene plasmids; assay: Etest MIC of tetracyclines, tet resistance gene (Table 20); format: cell-based, Acinetobacter baumannii; conditions: for MIC: Acinetobacter baumannii; for increase in the MIC: production of Tet(A), Tet(B) or Tet(C)
Protocol: (§2) DNA fragments of the resistance genes along with their flanking regions were amplified from clinical plasmids via PCR with specific primer pairs. The resulting PCR fragments were digested and then cloned into the plasmid pYMAb5 or pYMAb5Tc. The resulting plasmids were then transformed into A. baumannii KW1 via electroporation.
as §1

[4] = tested on: K. pneumoniae NVT1001 and its ΔompK35/36 and/or ΔramR mutants; assay: Etest MIC, OmpK35/36 loss and AcrAB-TolC overexpression (ΔramR) strains (Table 6); format: cell-based, Klebsiella pneumoniae; conditions: Klebsiella pneumoniae
In short: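 First, Etest determined each antibiotic's MIC, and intermediate results were adjusted upward to the next doubling dilution. Next, ceftazidime and cefotaxime were titrated in broth according to CLSI recommendations. Finally, results were interpreted with CLSI 2017 breakpoints, substituting CLSI 2015 for cephalothin and EUCAST 2017 for moxifloxacin.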

[5] = tested on: A. baumannii KW1 and its AdeR/AdeS mutants; assay: Etest MIC, AdeABC overexpression via AdeR or AdeS mutation (Table 16); format: cell-based, Acinetobacter baumannii
Source text: DNA fragments of the entire adeR, adeS, gyrA and parC along with their flanking regions were amplified from A. baumannii KW1 using PCR with specific primer pairs and then cloned into plasmid pUT-KB. The QuikChange site-directed mutagenesis kit (Stratagene) was used to generate mutations in the adeR, adeS, gyrA and parC genes in the plasmids using the methods described by the manufacturer. For homologous recombination, plasmids containing mutations in the adeR, adeS, gyrA or parC gene were transformed into E. coli S17-1 λpir^23 via electroporation and mobilized into A. baumannii KW1 via conjugation. Single-crossover strains were selected from Luria-Bertani (LB) plates supplemented with cefotaxime (1 μg/ml) and kanamycin ([…]), as the growth of non-A. baumannii contaminants is suppressed by cefotaxime (1 μg/ml). The kanamycin-resistant transconjugants were selected and the insertion of plasmids was verified via PCR. After incubation in 20 ml brain heart infusion (BHI) broth for 6 hours in the absence of kanamycin at 37° C., the fully grown cultures were spread onto LB plates supplemented with 10% sucrose. After the double crossover occurred, the sucrose-resistant and kanamycin-susceptible colonies were selected, and the gene mutations were confirmed via PCR.
as §1

[6] = tested on: A. baumannii KW1 strains with β-lactamase plasmids; assay: Etest MIC of β-lactams, extended-spectrum β-lactamase, AmpC β-lactamase or carbapenemase (Table 18); format: cell-based, Acinetobacter baumannii
Protocol: as §2, §1

[7] = NVT1001, Tet(A) on pACYC177, read-out: MIC
[8] = NVT1001, Tet(B) on pACYC177, read-out: MIC
[9] = NVT1001, Tet(C) on pACYC177, read-out: MIC
[10] = NVT1001, Tet(D) on pACYC177, read-out: MIC
[11] = NVT1001, Tet(M) on pACYC177, read-out: MIC
[12] = NVT1001, no supplemental plasmid, read-out: MIC
[13] = ΔramRΔompK35/36::ompK35/36 revertant
[14] = ΔramRΔompK35/36::ompK35 revertant
[15] = ΔramRΔompK35/36::ompK36 revertant
[16] = ΔramRΔompK35/36::ramR revertant
[17] = ΔramRΔompK35/36::ramR::ompK35/36 revertant
[18] = ΔramRΔompK35/36::ramR::ompK35 revertant
[19] = ΔramRΔompK35/36::ramR::ompK36 revertant
[20] = ΔramRΔ35/36, ΔramRΔompK35/36 mutant

| Compound | MIC [1, 7] [µg/mL] | MIC [1, 8] [µg/mL] | MIC [1, 9] [µg/mL] | MIC [1, 10] [µg/mL] | MIC [1, 11] [µg/mL] | MIC [1, 12] [µg/mL] | MIC ([1]; ΔramR, Tet(A) on pACYC177) [µg/mL] | MIC ([1]; ΔramR, Tet(B) on pACYC177) [µg/mL] | MIC ([1]; ΔramR, Tet(C) on pACYC177) [µg/mL] | MIC ([1]; ΔramR, Tet(D) on pACYC177) [µg/mL] | MIC ([1]; ΔramR, Tet(M) on pACYC177) [µg/mL] | MIC ([1]; ΔramR, no supplemental plasmid) [µg/mL] | MIC [2, 13] [µg/mL] | MIC ([3]; KW1, Tet(A) on pYMAb5) [µg/mL] | MIC ([3]; KW1, Tet(B) on pYMAb5) [µg/mL] | MIC ([3]; KW1, Tet(M) on pYMAb5) [µg/mL] | MIC ([3]; KW1, no supplemental plasmid) [µg/mL] | MIC ([3]; KW1 with shuttle vector pYMAb5) [µg/mL] | increase in the MIC [3] [fold] | MIC ([4]; Δ36, ΔompK36 mutant) [µg/mL] | further results |
| --- | --- | --- | --- | --- | --- | --- | --- | --- | --- | --- | --- | --- | --- | --- | --- | --- | --- | --- | --- | --- | --- |
| CN(C)c1ccc(O)c2c1C[C@H]1C[C@H]3[C@H](N(C)C)C(O)=C(C(N)=O)C(=O)[C@@]3(O)C(O)=C1C2=O [Minocycline] | 32 | 32 | 4 | 128 | 32 | 4 | > 256 | > 256 | 64 | > 256 | > 256 | 64 | 128 | 1.5 | 1.5 | 2 | 0.38 | 0.25 | 4 | 4 (≈ 8.74 µM) | MIC [2, 14]: 128 µg/mL; MIC [2, 15]: 128 µg/mL; MIC [2, 16]: 4 µg/mL; MIC [2, 17]: 4 µg/mL; MIC [2, 18]: 4 µg/mL; MIC [2, 19]: 4 µg/mL; MIC ([2]; ΔramRΔompK35/36 mutant): 128 µg/mL; MIC ([4]; WT, NVT1001, read-out: MIC): 4 µg/mL (≈ 8.74 µM); MIC ([4]; Δ35, ΔompK35 mutant): 4 µg/mL (≈ 8.74 µM); MIC ([4]; Δ35/36, ΔompK35/36 mutant): 4 µg/mL (≈ 8.74 µM); MIC ([4]; ΔramR mutant): 64 µg/mL (≈ 140 µM); MIC ([4]; ΔramRΔ35, ΔramRΔompK35 mutant): 128 µg/mL (≈ 280 µM); MIC [4, 20]: 128 µg/mL (≈ 280 µM); MIC ([4]; ΔramRΔ36, ΔramRΔompK36 mutant): 128 µg/mL (≈ 280 µM) |
| C[C@H]1c2cccc(O)c2C(=O)C2=C(O)[C@]3(O)C(=O)C(C(N)=O)=C(O)[C@@H](N(C)C)[C@@H]3[C@@H](O)[C@@H]21 [Doxycycline, doxycycline] | > 256 | > 256 | 16 | 128 | 32 | 4 | > 256 | > 256 | 128 | 256 | 128 | 64 | 64 | 12 | 32 | 192 | 0.75 | 0.75 | 4 | 4 (≈ 9 µM) | MIC [2, 14]: 64 µg/mL; MIC [2, 15]: 64 µg/mL; MIC [2, 16]: 4 µg/mL; MIC [2, 17]: 4 µg/mL; MIC [2, 18]: 4 µg/mL; MIC [2, 19]: 4 µg/mL; MIC ([2]; ΔramRΔompK35/36 mutant): 128 µg/mL; MIC ([4]; WT, NVT1001, read-out: MIC): 4 µg/mL (≈ 9 µM); MIC ([4]; Δ35, ΔompK35 mutant): 4 µg/mL (≈ 9 µM); MIC ([4]; Δ35/36, ΔompK35/36 mutant): 4 µg/mL (≈ 9 µM); MIC ([4]; ΔramR mutant): 64 µg/mL (≈ 144 µM); MIC ([4]; ΔramRΔ35, ΔramRΔompK35 mutant): 64 µg/mL (≈ 144 µM); MIC [4, 20]: 128 µg/mL (≈ 288 µM); MIC ([4]; ΔramRΔ36, ΔramRΔompK36 mutant): 64 µg/mL (≈ 144 µM) |
| CC(C)(O/N=C(\C(=O)N[C@@H]1C(=O)N2C(C(=O)[O-])=C(C[n+]3ccccc3)CS[C@H]12)c1csc(N)n1)C(=O)O [CAZ] | – | – | – | – | – | – | – | – | – | – | – | – | – | – | – | – | – | – | – | – | MIC ([5]; A91V mutant (AdeR)): 16 µg/mL; MIC ([5]; A94V mutant (AdeS)): 8 µg/mL; MIC ([5]; D20N mutant (AdeR)): 12 µg/mL; MIC ([5]; G30D mutant (AdeS)): 8 µg/mL; MIC ([5]; KW1): 4 µg/mL; MIC ([5]; P116L mutant (AdeR)): 8 µg/mL; MIC ([5]; R152K mutant (AdeS)): 8 µg/mL; MIC ([5]; T153M mutant (AdeS)): 8 µg/mL; MIC ([6]; KW1, no supplemental plasmid): 4 µg/mL; MIC ([6]; KW1 with ADC-30 on pYMAb5): >256 µg/mL; MIC ([6]; KW1 with CTX-M-15 on pYMAb5): >256 µg/mL; MIC ([6]; KW1 with IMP-1 on pYMAb5): 48 µg/mL; MIC ([6]; KW1 with NDM-1 on pYMAb5): >256 µg/mL; MIC ([6]; KW1 with OXA-23 on pYMAb5): 3 µg/mL; MIC ([6]; KW1 with OXA-58 on pYMAb5): 3 µg/mL; MIC ([6]; KW1 with OXA-66 on pYMAb5): 3 µg/mL; MIC ([6]; KW1 with OXA-72 on pYMAb5): 3 µg/mL; MIC ([6]; KW1 with VEB-3 on pYMAb5): >256 µg/mL; MIC ([6]; KW1 with VIM-1 on pYMAb5): >256 µg/mL; MIC ([6]; KW1 with shuttle vector pYMAb5): 3 µg/mL |
| CN(C)[C@@H]1C(O)=C(C(N)=O)C(=O)[C@@]2(O)C(O)=C3C(=O)c4c(O)cccc4[C@@](C)(O)[C@H]3C[C@@H]12 [Tetracycline, tetracycline] | > 256 | > 256 | 16 | > 256 | 16 | – | > 256 | > 256 | 256 | > 256 | 128 | – | – | 128 | > 256 | 48 | 3 | 3 | 4 | 2 (≈ 4.5 µM) | MIC ([5]; Acinetobacter baumannii, A91V mutant (AdeR)): 12 µg/mL; MIC ([5]; Acinetobacter baumannii, A94V mutant (AdeS)): 6 µg/mL; MIC ([5]; Acinetobacter baumannii, D20N mutant (AdeR)): 8 µg/mL; MIC ([5]; Acinetobacter baumannii, G30D mutant (AdeS)): 8 µg/mL; MIC ([5]; Acinetobacter baumannii, KW1, read-out: MIC): 3 µg/mL; MIC ([5]; Acinetobacter baumannii, P116L mutant (AdeR)): 6 µg/mL; MIC ([5]; Acinetobacter baumannii, R152K mutant (AdeS)): 6 µg/mL; MIC ([5]; Acinetobacter baumannii, T153M mutant (AdeS)): 8 µg/mL |
